Results: patent US20160376286A1, “Pyrimidin-4-one derivatives and their use in the tratement, amelioration or prevention of a viral disease” (priority 2011, published 2016)

Tested on: influenza A virus A/Aichi/2/68 (H3N2)
Assay: Cytopathic effect (CPE) assay H3N2 in MDCK cells
Assay type: cell-based, influenza A virus (A/Aichi/2/68 (H3N2)); MDCK cells
Description: A possible measure of the […] antiviral activity of the compounds having the formula I or II is the CPE assay disclosed herein. […] In this connection, the reduction in the virus-mediated cytopathic effect (CPE) upon treatment with the compounds was calculated as follows: The cell viability of infected-treated and uninfected-treated cells was determined using an ATP-based cell viability assay (Promega). The response in relative luminescent units (RLU) of infected-untreated samples was subtracted from the response (RLU) of the infected-treated samples and then normalized to the viability of the corresponding uninfected sample resulting in % CPE reduction.
The influenza A virus (IAV) was obtained from American Tissue Culture Collection (A/Aichi/2/68 (H3N2); VR-547). Virus stocks were prepared by propagation of virus on Mardin-Darby canine kidney (MDCK; ATCC CCL-34) cells and infectious titres of virus stocks were determined by the 50% tissue culture infective dose (TCID50) analysis as described in Reed, L. J., and H. Muench. 1938, Am. J. Hyg. 27:493-497.
MDCK cells were seeded in 96-well plates at 2×10^4 cells/well using DMEM/Ham's F-12 (1:1) medium containing 10% foetal bovine serum (FBS), 2 mM L-glutamine and 1% antibiotics (all from PAA). Until infection the cells were incubated for 5 hrs at 37° C., 5.0% CO2 to form a -80% confluent monolayer on the bottom of the well. Each test compound was dissolved in DMSO and generally tested at 25 μM and 250 μM. In those cases where the compounds were not soluble at that concentration they were tested at the highest soluble concentration. The compounds were diluted in infection medium (DMEM/Ham's F-12 (1:1) containing 5 μg/ml trypsin, and 1% antibiotics) for a final plate well DMSO concentration of 1%. The virus stock was diluted in infection medium (DMEM/Ham's F-12 (1:1) containing 5 μg/m1Trypsin, 1% DMSO, and 1% antibiotics) to a theoretical multiplicity of infection (M01) of 0.05.
After removal of the culture medium and one washing step with PBS, virus and compound were added together to the cells. In the wells used for cytotoxicity determination (i.e. in the absence of viral infection), no virus suspension was added. Instead, infection medium was added. Each treatment was conducted in two replicates. After incubation at 37° C., 5% CO2 for 48 hrs, each well was observed microscopically for apparent cytotoxicity, precipitate formation, or other notable abnormalities. Then, cell viability was determined using
CellTiter-Glo luminescent cell viability assay (Promega). The supernatant was removed carefully and 65 μl of the reconstituted reagent were added to each well and incubated with gentle shaking for 15 min at room temperature. Then, 60 μl of the solution was transferred to an opaque plate and luminescence (RLU) was measured using Synergy HT plate reader (Biotek).
Relative cell viability values of uninfected-treated versus uninfected-untreated cells were used to evaluate cytotoxicity of the compounds. Substances with a relative viability below 80% at the tested concentration were regarded as cytotoxic and retested at lower concentrations.
Reduction in the virus-mediated cytopathic effect (CPE) upon treatment with the compounds was calculated as follows: The response (RLU) of infected-untreated samples was subtracted from the response (RLU) of the infected-treated samples and then normalized to the viability of the corresponding uninfected sample resulting in % CPE reduction.

SMILES	CPE H3N2 reduction (%) (activity conc 50 (μM))	CPE H3N2 reduction (%) (activity conc 20)
N/C(=N\O)c1ccc(C(=O)NO)nc1	−4.8	–
CON(C)C(=O)c1ccc2ccccc2n1	−1.2	–
O=C(NOC(=O)c1cc(N2CCCCC2)ccn1)c1cc(N2CCCCC2)ccn1	29	–
CCONC(=O)c1cc(N2CCOCC2)ccn1.Cl	1.3	–
CCONC(=O)c1cc(N)ccn1.Cl	10.5	–
CCONC(=O)c1ccccn1	12.5	–
CCONC(=O)c1ccc2ccccc2n1	−2.2	–
CCONC(=O)c1cc(NCC2CCN(Cc3ccccc3)CC2)ccn1.Cl.Cl	14.8	–
Cc1cccc(C(=O)NOCc2ccccc2)n1	−2.7	–
CCONC(=O)c1cccc(C)n1	−2.1	–
COc1ccc2nc(C(=O)NOCc3ccccc3)ccc2c1	−1.9	–
O=C(NOCc1ccccc1)c1ccc(N2CCCC2)cn1	–	−8.7
Cc1cccc(C(=O)N(C)OCc2ccccc2)n1	−2.3	–
CCON(C)C(=O)c1cccc(C)n1	−1.9	–
CN(OCc1ccccc1)C(=O)c1ccc(-c2ccccc2)cn1	−2.6	–
O=C(c1cc2ccccc2cn1)N(O)Cc1ccccc1	34.2	–
O=C(NO)c1cc2ccccc2cn1	94.3	–
O=C(c1cc2ccccc2cn1)N(O)CCc1ccccc1	–	−1.8
O=C(NO)c1ccc(N2CCCC2)cn1	−4.3	–
O=C(c1cc(NS(=O)(=O)Cc2ccccc2)ccn1)N(O)Cc1ccccc1	6.2	–

SMILES	CPE H3N2 reduction (%) (activity conc 50 (μM))	CPE H3N2 reduction (%) (activity conc 20)
O=C(NO)c1cc(N2CCOCC2)ccn1	−7.1	–
O=C(c1cc(NS(=O)(=O)c2ccccc2)ccn1)N(O)Cc1ccccc1	−5.2	–
C[C@@H]1CN(c2ccnc(C(=O)N(O)Cc3ccccc3)c2)C[C@H](C)O1	10.5	–
CN(C)C1CCN(c2ccnc(C(=O)N(O)Cc3ccccc3)c2)CC1	12.3	–
O=C(c1cc(N2CCCC(F)(F)C2)ccn1)N(O)Cc1ccccc1	8.9	–
CN1CCN(c2ccnc(C(=O)N(O)Cc3ccccc3)c2)CC1	2.4	–
O=C(c1cc(N2CCC(N3CCCC3)CC2)ccn1)N(O)Cc1ccccc1	10.7	–
CC(C)(C)OC(=O)NC1CCN(c2ccnc(C(=O)N(O)Cc3ccccc3)c2)CC1	8.3	–
CN(C)CCNC(=O)c1cccc(-c2ccnc(C(=O)N(O)Cc3ccccc3)c2)c1	8.9	–
O=C(c1cc(N2CCC(N3CCCCC3)CC2)ccn1)N(O)Cc1ccccc1	18.8	–
NC1CCN(c2ccnc(C(=O)N(O)Cc3ccccc3)c2)CC1	3.2	–
O=C(c1cc(N2CCC3(CC2)OCCO3)ccn1)N(O)Cc1ccccc1	9.5	–
CN(C)C(=O)c1cccc(-c2ccnc(C(=O)N(O)Cc3ccccc3)c2)c1	5.3	–
CC(C)(C)OC(=O)N1CCN(c2ccnc(C(=O)N(O)Cc3ccccc3)c2)CC1	34	–
CC1(C)C=C(c2ccnc(C(=O)N(O)Cc3ccccc3)c2)CC(C)(C)N1	2.8	–
Cl.O=C(c1cc(C2CCNCC2)ccn1)N(O)Cc1ccccc1	−1.4	–
Cl.O=C(NO)c1cc(NS(=O)(=O)Cc2ccc(F)cc2)ccn1	−1.4	–
Cl.Cl.O=C(c1cc(N2CCNCC2)ccn1)N(O)Cc1ccccc1	−4.5	–
Cl.O=C(NO)c1cc(NS(=O)(=O)Cc2cccc(F)c2)ccn1	−2.4	–
O=C(c1cc(C2=CCC3(CC2)OCCO3)ccn1)N(O)Cc1ccccc1	5.4	–
